In the SangsterLogP compilation:

Columns and labels:
[1] = not given; remark: listed apart in the source
[2] = method code SF-RC, from DOI: 10.1002/jlcr.3239, PMID: 25359578; details: pH 7.4
[3] = method code SF, from DOI: 10.1016/0014-2999(77)90010-3, PMID: 336381; details: pH 9.8
[4] = method code SF-HPLC, from DOI: 10.1016/j.ejps.2016.07.010, PMID: 27422078; details: pH 7.4
[5] = not given; remark: listed apart in the source
[6] = method code SF-HPLC, from DOI: 10.1016/j.ijpharm.2014.07.033, PMID: 25079434; details: pH 7.4
[7] = method code SF-LC/MS, from DOI: 10.1002/rcm.3594, PMID: 18543375; details: pH 7.4
[8] = method code SF-AS, from PMID: 7306420; details: pH 7.5
[9] = from Letourneux, Y.; Sparfel, L.; Roussakis, C.; Piessard, S.; LeBaut, G. (1984). Pyrophthalones. VI. Derivatives of (N-alkyldihydro-1,4-pyridinyliden-4-yl)-2-indanedione-1,3. Search for antitumor …; details: pH 7.4
[10] = not given; remark: listed apart in the source
[11] = method code SF-AS, from PMID: 7170648; details: pH 7.4
[12] = not given; remark: listed apart in the source
[13] = not given; remark: listed apart in the source
[14] = not given; remark: listed apart in the source
[15] = method code SF, from DOI: 10.1021/jm00169a014, PMID: 2362268; details: pH 7.4
[16] = method code SF-AS, from DOI: 10.1016/0014-2999(72)90235-x, PMID: 4113999
[17] = method code SF-AS, from DOI: 10.1081/jlc-120004751
[18] = not given; remark: listed apart in the source
[19] = not given; remark: listed apart in the source
[20] = method code SF, from DOI: 10.1016/s0223-5234(00)80025-2, PMID: 11278041; details: pH 7.4
[21] = not given; remark: listed apart in the source
[22] = not given; remark: listed apart in the source
[23] = method code SF-EIA, from DOI: 10.1016/s0022-2275(20)42614-8, PMID: 2280184; details: pH 1.0
[24] = not given; remark: listed apart in the source
[25] = not given; remark: listed apart in the source
[26] = method code SF-AS, from DOI: 10.3109/00498258809055142, PMID: 3354228
[27] = not given; remark: listed apart in the source
[28] = method code SF-RC, from DOI: 10.1016/j.nucmedbio.2013.04.008, PMID: 23731552; details: pH 7.4
[29] = not given; remark: listed apart in the source
[30] = not given; remark: listed apart in the source
[31] = method code SF-HPLC, from DOI: 10.1016/0378-5173(91)90409-h; details: pH 7.4
[32] = from Courrière, P.; Paubel, J.P.; Nivière, P.; Foussard-Blaspin, O. (1978). Structure-activity study in a series of local anesthetic agents. I. Physicochemical properties and molecular orbital study. …
[33] = not given; remark: listed apart in the source
[34] = method code SF-HPLC, from DOI: 10.1016/j.ejps.2006.07.007, PMID: 16997537; details: pH 7.4
[35] = not given; remark: listed apart in the source
[36] = method code SF, from DOI: 10.1016/j.bmcl.2013.12.011, PMID: 24342238
[37] = method code SF-AS, from PMID: 4762845; details: pH 1.0
[38] = not given; remark: listed apart in the source
[39] = method code SF-RC, from DOI: 10.1016/j.nucmedbio.2008.04.004, PMID: 18589308; details: pH 7.4
[40] = not given; remark: listed apart in the source
[41] = method code SF, from Huang, J.; Leng, X. (1993). Interaction of rat hepatocyte and cytochrome P 450 with pyrethroids in vitro. Dong Wu Xue Bao, 39(4)418-423.

SMILES: CN1CCc2cc(Cl)c(O)cc2[C@@H](c2ccc(SCc3ccccc3)cc2)C1
- logP: 3.78

SMILES: CN1CN(c2ccccc2)C2(CCN(CCCC(=O)c3ccc(I)s3)CC2)C1=O
- logP [1]: 3.14

SMILES: O=C(NCCF)Nc1ccc(-c2nc(N3CC4CCC(C3)O4)c3cnn(CC(F)(F)F)c3n2)cc1
- logD [2]: 1.9

SMILES: O=c1[nH]c2ccccc2n1C1CCN(C[C@@H](O)[C@@H]2COc3ccccc3O2)CC1 (relative stereo)
- logD [3]: 3.43

SMILES: Cc1cc(=O)c2c(O)cc(O)c(C3CCN(C)CC3OC(=O)c3ccccc3)c2o1 (configuration not stated)
- logD [4]: 2.33

SMILES: COC(=O)CC(O)CC(O)C=Cn1c(C(C)C)nc(-c2ccncc2)c1-c1ccc(F)cc1 (configuration not stated)
- logP [5]: 0.9

SMILES: CNC(=O)c1cccc2c(Nc3ccc(NS(C)(=O)=O)cc3OC)c3cccc(C)c3nc12
- logD [6]: 3.26

SMILES: COc1cc2c(c(OC)c1OC)-c1ccc(OC)c(=O)cc1[C@@H](NC(C)=O)CC2
- logD [7]: 1.08

SMILES: CS(=O)(=O)c1ccc2c(c1)N(CCCN1CCC(C(N)=O)CC1)c1ccccc1S2
- logD [8]: 2.02

SMILES: CC1=CC(=C2C(=O)c3ccccc3C2=O)C=C(C)N1CCCNC(=O)N(CCCl)N=O
- logD [9]: 2.84

SMILES: CCCCCCCCCCCCC(Br)C(=O)OCC1OC(n2cc(C)c(=O)[nH]c2=O)CC1N=[N+]=[N-] (configuration not stated)
- logP [10]: 8.14

SMILES: CCN(CC)C(=O)N1CCN(Cc2cc(Nc3ccnc4cc(Cl)ccc34)ccc2O)CC1
- logD [11]: 3.95

SMILES: c1cc2ccc3ccc4ccc5ccc6ccc1c1c2c3c4c5c61
- logP [12]: 7.64

SMILES: CC(=O)N(O)CCCCCNC(=O)CCC(=O)N(O)CCCCCNC(=O)CCC(=O)N(O)CCCCCN
- logP [13]: -1.52

SMILES: COc1ccc(C=Cc2ccc(C=Cc3ccc(OC)c(C(F)(F)F)c3)c(O)c2)cc1C(F)(F)F
- logP [14]: 7.17

SMILES: CC(=O)Oc1ccc(C(c2ccc(OC(C)=O)cc2)c2ccccn2)cc1
- logD [15]: 2.64

SMILES: OCCN1CCN(CCC=C2c3ccccc3Sc3ccc(Cl)cc32)CC1
- logP [16]: 3

SMILES: Cc1cn(C2CC(N=[N+]=[N-])C(COC(=O)C(=O)NC(Cc3c[nH]c4ccccc34)C(=O)O)O2)c(=O)[nH]c1=O (configuration not stated)
- logP [17]: 0.67

SMILES: Cc1cc(C(=O)Nc2ccc(-c3ccccc3S(N)(=O)=O)cc2)n(-c2ccc3onc(N)c3c2)n1
- logP [18]: 2.1

SMILES: COc1cc(C2c3cc4c(cc3C(O)C3COC(=O)C23)OCO4)cc(OC)c1OC (configuration not stated)
- logP [19]: 2.01

SMILES: CC(C)Cc1ccc(C(C)C(=O)OCN2C(=O)C(=O)c3ccccc32)cc1 (configuration not stated)
- logD [20]: 4.23

SMILES: C[C@]12CC[C@H](O)C[C@H]1CC[C@@H]1[C@@H]2CC[C@]2(C)[C@@H](c3ccc(=O)oc3)CC[C@]12O
- logP [21]: 3.34

SMILES: CC(C)(C)CC(=O)N1CCC(N(c2ccc(C(F)(F)F)cc2)c2cccnc2)CC1
- logP [22]: 4.2

SMILES: C[C@H](CCC(=O)O)[C@H]1CC[C@H]2[C@@H]3C[C@H](O)[C@@H]4C[C@H](O)CC[C@]4(C)[C@H]3CC[C@]12C
- logD [23]: 3.08

SMILES: FCCOc1ccc(CN2CCN(Cc3cc4ccccc4o3)CC2)cc1
- logP [24]: 3.35

SMILES: CCCCC(CC)COC(=O)c1ccccc1C(=O)OCC(CC)CCCC (configuration not stated)
- logP [25]: 7.3

SMILES: OCCN1CCN(CCCN2c3ccccc3C=Cc3ccccc32)CC1
- logP [26]: 3

SMILES: COc1cc2nc(N3CCN(C(=O)C4COc5ccccc5O4)CC3)nc(N)c2cc1OC (configuration not stated)
- logP [27]: 3.38

SMILES: O=C(Nc1cccnn1)N1CCC(=Cc2cccc(Oc3ccc(C(F)(F)F)cn3)c2)CC1
- logD [28]: 3.48

SMILES: CC(C)C(NC(=O)CN1C(=O)C(NC(=O)NCc2cc[n+]([O-])cc2)CC=C1c1ccccc1)C(=O)C(F)(F)F (configuration not stated)
- logP [29]: 1.13

SMILES: CC(=O)O[C@]1(C(C)=O)CC[C@H]2[C@@H]3C[C@H](F)C4=CC(=O)CC[C@]4(C)[C@H]3CC[C@@]21C
- logP [30]: 3.48

SMILES: NC(=O)[C@@H]1CCCN1C(=O)[C@H](Cc1cn(C2OC(=O)c3ccccc32)cn1)NC(=O)[C@@H]1CCC(=O)N1 (some centres not stated)
- logD [31]: -1.25

SMILES: CCN(CC)CCCN(C(=O)Cc1ccccc1)c1c(C)cccc1C
- logP [32]: 4.94

SMILES: C=CCn1nc(-c2sc(NC(=O)C(C)(C)C)nc2C)cc1C(=O)NCc1ccccc1
- logP [33]: 4.33

SMILES: CCOC(=O)C1OC(Oc2cc3oc(-c4ccc(O)cc4)cc(=O)c3c(O)c2O)C(O)C(O)C1O (configuration not stated)
- logD [34]: 2.37

SMILES: c1cncc(-c2cnn3cc(-c4ccc(OCCN5CCCCC5)cc4)cnc23)c1
- logP [35]: 3.4

SMILES: CN(C)Cc1cc(C=CC(=O)C=C(O)C=Cc2ccc(O)c(N(C)C)c2)ccc1O
- logP [36]: 3.48

SMILES: O=C(CCOCCOCCOCCOCCC(=O)Nc1c(I)cc(I)c(C(=O)O)c1I)Nc1c(I)cc(I)c(C(=O)O)c1I
- logD [37]: 1.42

SMILES: CCCN(CCCCN1C(=O)CC2(CCCC2)CC1=O)C1COc2cccc(OC)c2C1 (configuration not stated)
- logP [38]: 4.8

SMILES: O=C(OC[C@@H]1O[C@H](n2cc(Br)c(=O)[nH]c2=O)[C@H](F)[C@H]1OC(=O)c1ccccc1)c1ccccc1
- logD [39]: 3.95

SMILES: COc1cccc([C@H](O)C2CCN(CCc3ccc(F)cc3)CC2)c1OC
- logP [40]: 3.8

SMILES: CC(C)C(C(=O)OC(C#N)c1cccc(Oc2ccccc2)c1)c1ccc(OC(F)F)cc1 (configuration not stated)
- logP [41]: 5.55
